Common to all, as to assay: Growth inhibition GI50 in vitro (CCK8/MTT, 72 h)
The subject of one assay is HEL (Jak2 V167F). It counts as cell-based. The note with it: Homo sapiens; HEL, Jak2 V167F; read-out: GI50. How it is done: Jak2 is a kind of non-receptor PTK (Janus Kinase 2) with great significance in cell growth, differentiation and transformation. Jak2 gene mutation often leads to bone marrow hyperplasia and transformation. Especially Jak2 V167F mutation is common for clinical patients. Human erythroleukemia cell line HEL expressing Jak2 V167F was cultured with 1×RPMI1640 complete medium (supplement with 10% FBS).
(§1) The suspension cells were collected by centrifugation. The supernatant was discard and the cell pellet was resuspended and counted. Different cell concentrations (5˜10×10^4 cells/mL) were prepared according to the growth cycle of each cell line and then seeded on a 96-well plate (Corning), 100 μL/well. The cells were incubated over night at 37° C., 5% CO2. The compounds were added to the cells on the second day with 2 wells in parallel. The final concentration of organic solvent shall not exceed 1%. The cells were continually incubated for 72 h, and then subjected to MTT assay.
(§2) The present compounds and the reference compounds were dissolved with DMSO (Sigma), respectively. […] The storage concentration of compounds was 10 mM and kept at −20° C. They were diluted by 2 times or 10 times with serial dilution before using.
(§3) Dojindo CCK8 reagent kit was used as MTT assay. […] FC meter was used as microplate reader.
(§4) Adherent cell culture medium was discard and immediately replaced with fresh prepared medium which contains 10% CCK8 reagent (100 μL/well). For the suspension cells, CCK8 was directly added to 10% of the final concentration. The cells were continually incubated for 1˜4 h. When the color of control wells turned to dark yellow, the absorption value was measured at OD450 nm. The cell growth rate was calculated according to the following formula: cell growth rate (%)=100*(T−T0)/(C−T0), T=optical density of drug treatment cell well—optical density of blank control well; T0=optical density of cell well before drug treatment—optical density of blank control well; C=optical density of cell well of solvent control group—optical density of blank control well. […] The experiment was independently repeated 1˜3 times, and subject to biological statistical analysis.
(§5) Growth inhibition assay was conducted in the cell lines shown Table 14 with the different oncogene mutations. Each compound started at 1000 nM as an initial concentration and was diluted by 2 times with serial dilution to 0.03 nM.

The test system of the next assay is Ramos (BTK). It counts as cell-based, human. Particulars: for GI50: Homo sapiens, Ramos, BTK; for inhibition effects: BTK+ Ramos cells. How it is done:
RAMOS is human B lymphocytic leukemia cell line positively expressing BTK. It was cultured with 1×RPMI1640 complete medium (supplement with 10% FBS).
as §1, §2, §3, §4, §5

Another assay concerns Kasumi-1 (Kit N822K). In kind it is cell-based. Particulars: Homo sapiens. The procedure: Kasumi-1 is a leukemia cell line positively expressing c-Kit N822K mutant Abnormal variation of c-Kit often appears in cancer patients. Kasumi-1 cell line was cultured with 1×RPMI1640 complete medium (supplement with 10% FBS).
as §1, §2, §3, §4, §5

The subject of a further assay is Karpas-299 (NPM-ALK). In kind it is cell-based. Particulars: Homo sapiens, Karpas-299, EGFR wt.
In another assay the test system is SNU-16 (FGFR2 amp). In kind it is cell-based. The note with it: Homo sapiens, SNU-16, EGFR wt. How it is done: (§6) Human NSCLC cell line NCI-H1581(ATCC) contains FGFR1 gene amplification and high expression. Human gastric cancer cell line SNU-16(ATCC) contains FGFR2 gene amplification and high expression. They were cultured with 1×RPMI1640 complete medium (10% FBS), respectively.
as §1, §2, §3, §4, §5

The next assay has as its system H1581 (FGFR1 amp). It counts as cell-based. Particulars: Homo sapiens, NCI-H1581, H1581, EGFR wt. The procedure:
as §6, §1, §2, §3, §4, §5

The next assay deals with MV4-11 (FLT3-ITD). In kind it is cell-based, human. Particulars: for GI50: Homo sapiens, MV4-11, FLT3-ITD; for inhibition effects: FLT3-ITD+ MV4-11 cells. The procedure: FLT3 is a kind of PTK and about 20-30% of patients with acute myelocytic leukemia (AML) in clinic express FLT3-ITD mutation protein. FLT3-ITD positive cell line MV4-11 was cultured with 1×RPMI1640 complete medium (supplement with 10% FBS).
as §1, §2, §3, §4, §5

In assay [1] the test system is NCI-H1781 (HER2 exon 20 G776VC mutation). It counts as cell-based. The note with it: Homo sapiens, NCI-H1781; Table 16; 1000 nM to 0.03 nM serial dilution; read-out: GI50 H1781 (HER2 G776VC).

Here are results for 14 molecules from patent US10342796B2, “Acrylanilide derivative, preparation method, and applications thereof in pharmacy” (Ancureall Pharmaceutical (Shanghai) Co., Ltd., priority 2015, dated 2019).

What is called GI50 is the concentration that inhibits growth by half.

Turning to `C=CC(=O)Nc1cc(Nc2nccc(Nc3cccc(Cl)c3)n2)c(OC)cc1N(C)CCN(C)C` [Compound 2, N-(5-(4-(3-chloro-phenylamino)-pyrimidin-2-ylamino)-2-(2-(dimethylamino-ethyl)-methyl-amino)-4-methoxyl-phenyl)-acrylamide], the GI50 in the assay with HEL (Jak2 V167F) was above 1 µM; in the assay with Ramos (BTK), 0.234 µM; in the assay on Kasumi-1 (Kit N822K) it was above 1 µM; with Karpas-299 (NPM-ALK), 0.5 µM; in the assay on SNU-16 (FGFR2 amp), above 1 µM; with H1581 (FGFR1 amp), above 1 µM. Moreover, the GI50 in the assay on MV4-11 (FLT3-ITD) is above 1 µM.
Take `C=CC(=O)Nc1cc(Nc2nccc(Nc3ccc(OCc4ccccn4)c(Cl)c3)n2)c(OC)cc1N(C)CCN(C)C` [Compound 18, N-(5-(4-(3-chloro-4-(pyridin-2-methoxyl)phenylamino)pyrimidin-2-ylamino)-2-((2-(dimethylamino)ethyl)(methyl)amino)-4-methoxyl-phenyl)-acrylamide]: the GI50 is above 1 µM in the assay with HEL (Jak2 V167F); 0.937 µM in the assay on Ramos (BTK); above 1 µM with Kasumi-1 (Kit N822K); above 1 µM in the assay on Karpas-299 (NPM-ALK); above 1 µM with SNU-16 (FGFR2 amp); above 1 µM with H1581 (FGFR1 amp). The molecule further gave a GI50 in the assay with MV4-11 (FLT3-ITD) above 1 µM.
In the case of `C=CC(=O)Nc1cc(Nc2ncc(Cl)c(Nc3ccc(OCc4ccccn4)c(Cl)c3)n2)c(OC)cc1N(C)CCN(C)C` [Compound 19, N-(5-(5-chloro-4-(3-chloro-4-(pyridin-2-methoxyl)phenylamino)-pyrimidin-2-ylamino)-2-((2-(dimethylamino)ethyl)(methyl)amino)-4-methoxyl-phenyl)-acrylamide], the GI50 in the assay on HEL (Jak2 V167F) was above 1 µM; in the assay on Kasumi-1 (Kit N822K), above 1 µM; in the assay on Karpas-299 (NPM-ALK) it was 0.5 µM; with SNU-16 (FGFR2 amp) it was above 1 µM; in the assay with H1581 (FGFR1 amp), above 1 µM; in the assay with MV4-11 (FLT3-ITD), above 1 µM.
As for `C=CC(=O)Nc1cc(Nc2nccc(-n3ccc4c(OC)cccc43)n2)c(OC)cc1N(C)CCN(C)C` [Compound 99, N-(5-(4-(4-methoxyl-1H-indol-1-yl)-pyrimidin-2-ylamino)-2-(2-(dimethylamino-ethyl)-methyl-amino)-4-methoxyl-phenyl)-acrylamide], in assay [1], the GI50 is 0.00192 µM.
Regarding `C=CC(=O)Nc1cc(Nc2nccc(-n3cnc4ccccc43)n2)c(OC)cc1N(C)CCN(C)C` [Compound 106], the GI50 in the assay with HEL (Jak2 V167F) was above 1 µM; in the assay on Ramos (BTK), 0.234 µM; in the assay on Kasumi-1 (Kit N822K) it was above 1 µM; in the assay on Karpas-299 (NPM-ALK), above 1 µM; in the assay on SNU-16 (FGFR2 amp) it was above 1 µM; in the assay on H1581 (FGFR1 amp) it was above 1 µM. Further, the GI50 in the assay with MV4-11 (FLT3-ITD) was above 1 µM.
As for `C=CC(=O)Nc1cc(Nc2ncnc(Nc3cccc(F)c3)n2)c(OC)cc1N(C)CCN(C)C` [Compound 114, N-(5-(4-(3-fluoro-phenylamino)-[1,3,5]triazin-2-ylamino)-2-((2-dimethylamino-ethyl)-methyl-amino)-4-methoxyl-phenyl)-acrylamide], the GI50 is above 1 µM in the assay on HEL (Jak2 V167F); 0.0966 µM with Ramos (BTK); below 0.1 µM in the assay on Kasumi-1 (Kit N822K); above 1 µM with Karpas-299 (NPM-ALK); above 1 µM in the assay on SNU-16 (FGFR2 amp); above 1 µM in the assay on H1581 (FGFR1 amp). This molecule gave a GI50 in the assay on MV4-11 (FLT3-ITD) of 0.124 µM. Also, the “inhibition effects” value in the assay with Ramos (BTK) and with MV4-11 (FLT3-ITD) was “moderate inhibition effects” throughout.
`C=CC(=O)Nc1cc(Nc2ncnc(Nc3cccc(Br)c3)n2)c(OC)cc1N1CCC(N2CCCC2)CC1` [Compound 118]: the GI50 in the assay with HEL (Jak2 V167F) was above 1 µM; with Ramos (BTK) it was 0.148 µM; with Kasumi-1 (Kit N822K), below 0.1 µM; with Karpas-299 (NPM-ALK) it was 0.5 µM; in the assay with SNU-16 (FGFR2 amp), above 1 µM; in the assay with H1581 (FGFR1 amp) it was above 1 µM. This molecule also returned a GI50 with MV4-11 (FLT3-ITD) of 0.156 µM. Besides, the “inhibition effects” value in the assay on Ramos (BTK) and in the assay on MV4-11 (FLT3-ITD) was “moderate inhibition effects” each time.
Regarding `C=CC(=O)Nc1cc(Nc2cc(Nc3cc(OC)c(Cl)cc3Cl)ncn2)c(OC)cc1N(C)CCN(C)C` [Compound 136, N-(5-(6-(2,4-dichloro-5-methoxyl-phenylamino)-pyrimidin-4-ylamino)-2-((2-dimethylamino-ethyl)-methyl-amino)-4-methoxyl-phenyl)-acrylamide], the concentration for 50% growth inhibition (GI50) in assay [1] turned out to be 0.00732 µM.
Regarding `C=CC(=O)Nc1cc(Nc2cc(Nc3ccc(F)c(Cl)c3)ncn2)c(OC)cc1N(C)CCN(C)C` [Compound 140, N-(5-(6-(3-chloro-4-fluoro-phenylamino)-pyrimidin-4-ylamino)-2-((2-dimethylamino-ethyl)-methyl-amino)-4-methoxyl-phenyl)-acrylamide], the GI50 with HEL (Jak2 V167F) is above 1 µM; in the assay on Ramos (BTK), 0.0586 µM; in the assay on Kasumi-1 (Kit N822K), above 1 µM; in the assay on Karpas-299 (NPM-ALK) it was above 1 µM; in the assay with SNU-16 (FGFR2 amp), above 1 µM; in the assay on H1581 (FGFR1 amp), above 1 µM. This molecule showed a 50% growth inhibitory concentration (GI50) in the assay with MV4-11 (FLT3-ITD) above 1 µM. Further, the “inhibition effects” value in the assay on Ramos (BTK) and in the assay with MV4-11 (FLT3-ITD) was “moderate inhibition effects” each time.
On to `C=CC(=O)Nc1cc(Nc2cc(Nc3ccc(F)c(Cl)c3)ncn2)c(OC)cc1N1CCN(C2CCN(C)CC2)CC1` [Compound 147, N-(5-(6-(3-chloro-4-fluoro-phenylamino)-pyrimidin-4-ylamino)-4-methoxyl-2-(4-(1-methylpiperidin-4-yl)-piperazin-1-yl)-phenyl)-acrylamide], for which the GI50 is above 1 µM in the assay on HEL (Jak2 V167F); 0.0468 µM in the assay on Ramos (BTK); above 1 µM in the assay on Kasumi-1 (Kit N822K); above 1 µM with Karpas-299 (NPM-ALK); above 1 µM in the assay with SNU-16 (FGFR2 amp); above 1 µM with H1581 (FGFR1 amp). The molecule also gave a concentration for 50% growth inhibition (GI50) with MV4-11 (FLT3-ITD) above 1 µM.
`C=CC(=O)Nc1cc(Nc2cc(-c3cn(C(C)C)c4ccccc34)ncn2)c(OC)cc1N(C)CCN(C)C` [Compound 183]: the GI50 in the assay on HEL (Jak2 V167F) was above 1 µM; in the assay on Ramos (BTK) it was 0.0781 µM; in the assay with Kasumi-1 (Kit N822K), above 1 µM; in the assay with Karpas-299 (NPM-ALK), above 1 µM; in the assay with SNU-16 (FGFR2 amp), above 1 µM; with H1581 (FGFR1 amp), above 1 µM. This molecule also yielded a GI50 in the assay on MV4-11 (FLT3-ITD) above 1 µM. Also, the “inhibition effects” value with Ramos (BTK) and in the assay on MV4-11 (FLT3-ITD) was “moderate inhibition effects” throughout.
Regarding `C=CC(=O)Nc1cc(Nc2nccc(-n3ccc4c(OCCOC)cccc43)n2)c(OC)cc1N(C)CCN(C)C` [Compound 205, N-(5-(4-(4-(2-methoxyl-ethoxyl)-1H-indol-1-yl)-pyrimidin-2-ylamino)-2-(2-(dimethylamino-ethyl)-methyl-amino)-4-methoxyl-phenyl)-acrylamide], the GI50 in assay [1] stood at 0.00152 µM.
For the molecule `C=CC(=O)Nc1cc(Nc2cc(Nc3ccc(OCC4CCOCC4)c(Cl)c3)ncn2)c(OC)cc1N(C)CCN(C)C` [Compound 216, N-(5-(6-(3-chloro-4-(tetrahydropyran-4-yl-methoxyl)-phenylamino)-pyrimidin-4-ylamino)-2-((2-dimethylaminoethyl)-methyl-amino)-4-methoxyphenyl)-acrylamide], in assay [1], the GI50 amounted to 0.0195 µM.
As to `C=CC(=O)Nc1cc(Nc2cc(Nc3cc(F)c(OC)c(Cl)c3)ncn2)c(OC)cc1N(C)CCN(C)C` [Compound 236, N-(5-(6-(3-chloro-5-fluoro-4-methoxyphenylamino)-pyrimidin-4-yl-amino)-2-((2-dimethylamino-ethyl)-methyl-amino)-4-methoxyl-phenyl)-acrylamide], the GI50 in assay [1] stood at 0.00096 µM.
